Reference: patent US7947854B2, “Bis-cationic compounds and use thereof” (The University of Sydney, priority 2003, dated 2011)
Several values for one entry are separate records, joined by “and”; a condition that tells them apart may be missing. Identical values can stand only once. Marks after values point to notes of the source that are not given here.

Assays:
[1] = tested on: MRSA (methicillin resistant S. aureus); test: In vitro antibacterial activity, NCCLS M7-A6; assay type: cell-based; conditions: Staphylococcus aureus, read-out: MIC MRSA (methicillin resistant S. aureus)
Procedure: (§1) Two bis-cationic compounds were tested for antibacterial activity. The assay used was that published by the National Committee for Clinical Laboratory Standards. 2003. Methods for Dilution Antimicrobial Susceptibility Tests for Bacteria That Grow Aerobically: Approved Standard—Sixth Edition. NCCLS document M7-A6. Villanova, Pa., USA.

[2] = tested on: VRE (Vancomycin resistant Enterococcus); test: In vitro antibacterial activity, NCCLS M7-A6; assay type: cell-based
Procedure: as §1

[3] = tested on: Pseudomonas ariginosa 122; test: In vitro antibacterial activity, NCCLS M7-A6; assay type: cell-based
Procedure: as §1

[4] = tested on: Streptococcus pneumonia 49619; test: In vitro antibacterial activity, NCCLS M7-A6; assay type: cell-based; conditions: Streptococcus pneumoniae
Procedure: as §1

[5] = tested on: Staphylococcus aureus 25923; test: In vitro antibacterial activity, NCCLS M7-A6; assay type: cell-based
Procedure: as §1

[6] = tested on: Escherichia coli 25922; test: In vitro antibacterial activity, NCCLS M7-A6; assay type: cell-based
Procedure: as §1

[7] = tested on: membrane-associated phospholipase B (LPL/LPTA activities); test: Radiometric assay, membrane-associated LPL/LPTA activities; assay type: biochemical, Cryptococcus neoformans H99; conditions: pH 4
Procedure: (§2) Fungal isolates and media. […] Isolate H99 was kindly supplied by Dr. Gary Cox (Duke University Medical Center, Durham, N.C., USA), and subcultured onto Sabouraud dextrose agar (SDA) at 30° C.
(§3) Cellular disruption to prepare membrane and cytosolic fractions. The cell pellet from the preparation of the supernatant, above, was also frozen at −70° C. After washing twice with imidazole buffer, it was disrupted in the presence of a protease inhibitor cocktail (P 8215 for fungal and yeast cells; 4-(2-aminoethyl)benzenesulfonyl fluoride hydrochloride, 100 mM, 1,10-phenanthroline, 500 mM, pepstatin A, 2.2 mM, E-64, 1.4 mM; Sigma) in a MiniBeadbeater-8 Cell Disrupter (MBB-8; Daintree Scientific, Tasmania, Australia) for three cycles of 1 min, alternating with a 1 min cooling period on ice. The homogenate was centrifuged at 14,000 g for 15 min to obtain the membrane (pellet) and the cytosolic (supernatant) fractions.
(§4) Secreted LPL and LPTA activities were measured simultaneously in a reaction mixture containing 1-[^14C]palmitoyl lyso-PC (25,000 dpm) and carrier lyso-PC (final concentration 200 μM) in assay buffer. The reaction time was […] with 1 μg of total protein and LPL activity was measured by the rate of loss of 1-[^14C]palmitoyl lyso-PC with release of radiolabelled fatty acids. LPTA activity was estimated from the rate of formation of radiolabelled PC.
(§5) All reactions were terminated by adding 0.5 mL of chloroform:methanol (2:1 v/v). The reaction products were extracted by the method as disclosed in Bligh, E. C. and W. J. Dyer. 1959 ‘A rapid method of total lipid extraction and purification.’ Can. J. Biochem. Physiol. 37:911-917, separated by TLC and quantified as previously described. In the case of PLC activity, the TLC plates were developed in petroleum ether (BP 60-80° C.): diethyl ether: acetic acid (90:15:1, v/v/v) instead of chloroform:methanol:water (65:25:4, v/v/v).
(§6) All experiments were carried out in duplicate or triplicate. The effects of pH on the various phospholipase activities were measured using 50 mM final concentration of imidazole-acetate buffer (pH range 3-5), MES buffer (pH range 6-8) and glycine buffer (pH 9-10). Controls for non-enzymic breakdown of substrates were included at all pH values. Cations, Triton X-100 and metal chelators were made up as stock solutions in water and diluted to the final concentration in the appropriate assay buffer.
(§7) Preparation of inhibitors and use in assays. The following compounds were tested (for structures, see FIG. 2): compound 1, 1,12-bis(tributylphosphonium)dodecane dibromide (Fluka AG, Buchs, Switzerland); compound 2, 1,10-bis(tributylammonium)-decane dibromide; compound 3, 1,12-bis(tributylammonium)do-decane dibromide (both synthesised in-house); compound 4, 1,10-bis(trimethylammonium)decane dibromide [“decamethonium”] (Sigma, St. Louis Mo., USA). All compounds were prepared as stock solutions of 700 μM in assay buffer containing 5 mM EDTA, which was then diluted serially with buffer to obtain solutions of 70, 7, 0.7 and 0.07 μM. In each assay, 45 μL of these solutions was used, and the final volume of 125 μL was made up of substrate, enzyme and buffer. The radiometric assay was carried out as above. Inhibition was calculated as the percent of substrates (DPPC or Lyso-PC) remaining in the case of PLB and LPL activities, or of DPPC produced, in the case of the LPTA activity. The amounts converted, or produced, in the inhibitor-free control were normalised to 100%, and the inhibition calculated against it. All assays were done in triplicate.
(§8) Under these conditions only PLB, LPL and LPTA activities (both secreted and cell-associated) were measured. Initially, compounds deemed to be potential inhibitors were assayed at 25 and 250 μM.

[8] = tested on: cytosolic phospholipase B (LPL/LPTA activities); test: Radiometric assay, cytosolic LPL/LPTA activities; assay type: biochemical, Cryptococcus neoformans H99; conditions: pH 4
Procedure: as §2, §3, §4, §5, §6, §7, §8

Row | SMILES | MIC [1] | MIC [2] | MIC [3] | MIC [4] | MIC [5] | MIC [6] | % Inhibition LPL, Membrane-bound Enzyme ([7]; 2.5 μM) [%] | % Inhibition LPTA, Membrane-bound Enzyme ([7]; 2.5 μM) [%] | % Inhibition LPL, Membrane-bound Enzyme ([7]; 25 μM) [%] | % Inhibition LPTA, Membrane-bound Enzyme ([7]; 25 μM) [%] | % Inhibition LPL, Membrane-bound Enzyme ([7]; 250 μM) [%] | % Inhibition LPTA, Membrane-bound Enzyme ([7]; 250 μM) [%] | % Inhibition LPL, Cytosolic Enzyme ([8]; 2.5 μM) [%] | % Inhibition LPTA, Cytosolic Enzyme ([8]; 2.5 μM) [%] | % Inhibition LPL, Cytosolic Enzyme ([8]; 25 μM) [%] | % Inhibition LPTA, Cytosolic Enzyme ([8]; 25 μM) [%] | % Inhibition LPL, Cytosolic Enzyme ([8]; 250 μM) | % Inhibition LPTA, Cytosolic Enzyme ([8]; 250 μM) [%]
1 | CCCC[N+](CCCC)(CCCC)CCCCCCCCCCCC[N+](CCCC)(CCCC)CCCC [1,12-Bis-(tributylammonium)dodecane dichloride] | 3.3 µg/mL and 5.5 µM | 1.6 µg/mL and 2.7 µM | 48 µg/mL and 80 µM | 0.73 µg/mL and 1.2 µM | 3.3 µg/mL and 5.5 µM | 13.4 µg/mL and 22 µM |  |  |  |  |  |  |  |  |  |  |  | 
2 | CCCC[P+](CCCC)(CCCC)CCCCCCCCCCCC[P+](CCCC)(CCCC)CCCC [Compound 1, 1,12-bis(tributylphosphonium)dodecane dibromide] |  |  |  |  |  |  | 0 | 0 | 0 | 0 | 0 | 0 | 0 | 0 | 0 | 0 | 12.7* % | 0
